Data reported in ChEMBL document CHEMBL1156520, “Inhibition of human dimethylarginine dimethylaminohydrolase-1 by S-nitroso-L-homocysteine and hydrogen peroxide. Analysis, quantification, and implications for hyperhomocysteinemia” (J Biol Chem, 2007).
pIC50, pKi: −log10 of the molar value.

Key:
[1] = molecular target: N(G),N(G)-dimethylarginine dimethylaminohydrolase 1 (Homo sapiens, UniProt O94760); experiment: Inhibition of human recombinant DDAH1
[2] = Inhibition of recombinant N-glutathione transferase/human DDAH1 fusion protein

N(G),N(G)-dimethylarginine dimethylaminohydrolase 1, sequence (O94760 whole entry, the tested form may be a part): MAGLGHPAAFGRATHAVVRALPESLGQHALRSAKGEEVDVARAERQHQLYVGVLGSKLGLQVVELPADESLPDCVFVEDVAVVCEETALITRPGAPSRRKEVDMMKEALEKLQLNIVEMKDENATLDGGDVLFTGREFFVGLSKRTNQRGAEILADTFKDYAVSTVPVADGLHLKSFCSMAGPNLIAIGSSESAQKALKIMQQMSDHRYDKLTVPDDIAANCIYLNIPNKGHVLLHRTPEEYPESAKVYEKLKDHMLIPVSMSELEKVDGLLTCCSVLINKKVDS

Row | pIC50 [1] | Structure (SMILES) | pKi [2]
1 | 3.19 | N[C@@H](CCS)C(=O)O [L-HOMOCYSTEINE] | –
2 | – | NCCCC[C@H](N)C(=O)O [LYSINE] | 2.55
